Here are results for 16 compounds from US6531466B2, “Tricyclic carbapenem compounds” (GlaxoSmithKline SpA, priority 1996, dated 2003).

Data set [1] deals with methicillin resistant Staphylococcus epidermidis (MRSE). Put plainly: standard microtiter broth serial dilution test, MRSE strains. The format is cell-based. The settings on record: 10 strains of MRSE; approximately 10^5 colony forming units, 35° for 18 hours. How it is done: (§1) The antibacterial activity of the compounds of the invention may be readily determined using conventional test procedures. For example the antibacterial activity of the compounds of the invention was determined using a standard mictoriter broth serial dilution test. In this test the broth was incubated with approximately 10^5 colony forming units of the test organism and incubated at 35° for 18 hours in the presence of test compound.
(§2) In this list the compounds of the invention were tested using this procedure against 23 strains of MRSA and 10 strains of MRSE and the resultant minimum inhibitory concentrations (MIC90) in mg/litre determined.

Data set [2] deals with methicillin resistant Staphylococcus aureus (MRSA). The data set is described as follows: standard microtiter broth serial dilution test, MRSA strains. The format is cell-based. The settings on record: 23 strains of MRSA; approximately 10^5 colony forming units, 35° for 18 hours. How it is done:
as §1, §2

Data set [3] in a line: toxicity on administration to rats. The format is in vivo. The settings on record: doses up to 1000 mg/kg. The source says:
Compounds of the invention are in general non-toxic and therapeutically effective doses.

Structures are written as SMILES.

With `C[C@@H](O)[C@H]1C(=O)N2C(C(=O)[O-])=C3/C(=C/c4cc(-c5cc[n+](CC(N)=O)cc5)cs4)CCC[C@@H]3[C@H]12` [Example 18, (8S,9R,10S,12R)-1-aza-10-(1-Hydroxyethyl)-11-oxo-4-[(E)-(4-(1′-(carbamoylmethyl)pyridinium-4-′-yl)thiophen-2-yl)methylene]-tricyclo-[7,2,0,0^3.8]-undec-2-ene-2-carboxylate], in data set [1], the “MRSE MIC90” value came out at 2 µg/mL. The “MRSA MIC90” value in data set [2] was 4 µg/mL.
For `C[C@@H](O)[C@H]1C(=O)N2C(C(=O)[O-])=C3/C(=C/c4cc5cnccc5o4)CCC[C@@H]3[C@H]12.[Na+]` [Example 13], the “MRSE MIC90” value in data set [1] was found to be 4 µg/mL. Also, in data set [2], the “MRSA MIC90” value is 4 µg/mL.
For `C[C@@H](O)[C@H]1C(=O)N2C(C(=O)[O-])=C3/C(=C/c4csc5ccccc45)CCC[C@@H]3[C@H]12.[Na+]` [Example 17, Sodium (8S,9R,10S,12R)-1-aza-10-(1-Hydroxyethyl)-11-oxo-4-[(E-)(benzothiophen-3-yl)methylene]-tricyclo-[7,2,0,0^3.8]-undec-2-ene-2-carboxylate], the “MRSE MIC90” value in data set [1] was determined as 2 µg/mL. Besides, the “MRSA MIC90” value in data set [2] came to 4 µg/mL.
With `C[C@@H](O)[C@H]1C(=O)N2C(C(=O)[O-])=C3/C(=C/c4ccc(Cl)c([N+](=O)[O-])c4)CCC[C@@H]3[C@H]12.[Na+]` [Example 15, Sodium (8S,9R,10S,12R)-1-aza-10-(1-Hydroxyethyl)-11-oxo-4-[(E)-(4-chloro-3-nitro-phenyl)methylene]-tricyclo-[7,2,0,0^3.8]-undec-2-ene-2-carboxylate], the “MRSE MIC90” value in data set [1] was determined as 2 µg/mL. In addition, the “MRSA MIC90” value in data set [2] came to 4 µg/mL.
Take `C[C@@H](O)[C@H]1C(=O)N2C(C(=O)[O-])=C3/C(=C/c4ccnc(N)c4)CCC[C@@H]3[C@H]12.[Na+]` [Example 14, Sodium (8S,9R,10S,12R)-1-aza-10-(1-Hydroxyethyl)-11-oxo-4-[(E)-(2-aminopyrid-4-yl)methylene]-tricyclo-[7,2,0,0^3.8]-undec-2-ene-2-carboxylate]: the “MRSE MIC90” value in data set [1] came out at 4 µg/mL. Further, the “MRSA MIC90” value in data set [2] worked out at 8 µg/mL.
The like results for `C[C@@H](O)[C@H]1C(=O)N2C(C(=O)[O-])=C3/C(=C/c4ccnc(Cl)c4)CCC[C@@H]3[C@H]12.[Na+]` [Example 12] were, in that order, 2 µg/mL and 4 µg/mL.
Take `Cc1cc(/C=C2\CCC[C@H]3C2=C(C(=O)[O-])N2C(=O)[C@H]([C@@H](C)O)[C@@H]32)cc(C)n1.[Na+]` [Example 9, Sodium (8S,9R,10S,12R)-1-aza-10-(1-Hydroxyethyl)-11-oxo-4-[(E)-(2,6-dimethylpyridin-4-yl)methylene]-tricyclo-[7,2,0,0^3.8]-undec-2-ene-2-carboxylate]: the “MRSE MIC90” value in data set [1] stood at 4 µg/mL. Besides, the “MRSA MIC90” value in data set [2] was determined as 8 µg/mL.
Regarding `C[C@@H](O)[C@H]1C(=O)N2C(C(=O)[O-])=C3/C(=C/c4nc(-c5ccncc5)cs4)CCC[C@@H]3[C@H]12.[Na+]` [Example 3, Sodium (8S,9R,10S,12R)-1-aza-10-(1-Hydroxyethyl)-11-oxo-4-[(E)-(4-(4′-pyridyl)thiazol-2-yl)methylene]-tricyclo-[7,2,0,0^3.8]-undec-2-ene-2-carboxylate], in data set [1], the “MRSE MIC90” value is 2 µg/mL. Further, the “MRSA MIC90” value in data set [2] was determined as 4 µg/mL.
The corresponding values for `C[C@@H](O)[C@H]1C(=O)N2C(C(=O)[O-])=C3/C(=C/c4nc(-c5ccccc5)cs4)CCC[C@@H]3[C@H]12.[Na+]` [Example 7, Sodium (8S,9R,10S,12R)-1-aza-10-(1-Hydroxyethyl)-11-oxo-4-[(E)-(4-phenylthiazol-2-yl)methylene]-tricyclo-[7,2,0,0^3.8]-undec-2-ene-2-carboxylate] are 2 µg/mL and 4 µg/mL.
For the compound `C[C@@H](O)[C@H]1C(=O)N2C(C(=O)[O-])=C3/C(=C/c4cc5ccccc5o4)CCC[C@@H]3[C@H]12.[Na+]` [Example 11], in data set [1], the “MRSE MIC90” value worked out at 2 µg/mL. Further, the “MRSA MIC90” value in data set [2] amounted to 4 µg/mL.
The like results for `C[C@@H](O)[C@H]1C(=O)N2C(C(=O)[O-])=C3/C(=C/c4ccccc4)CCC[C@@H]3[C@H]12.[Na+]` [Example 1, Sodium (8S,9R,10S,12R)-1-aza-10-(1-Hydroxyethyl)-11-oxo-4-[(E)-phenylmethylene]-tricyclo-[7,2,0,0^3.8]-undec-2-ene-2-carboxylate] were, in that order, 4 µg/mL and 8 µg/mL.
For `C[C@@H](O)[C@H]1C(=O)N2C(C(=O)[O-])=C3/C(=C/c4ccncc4)CCC[C@@H]3[C@H]12.[Na+]` [Example 5, Sodium (8S,9R,10S,12R)-1-aza-10-(1-Hydroxyethyl)-11-oxo-4-[(E)-(pyrid-4-yl)methylene]-tricyclo-[7,2,0,0^3.8]-undec-2-ene-2-carboxylate], in data set [1], the “MRSE MIC90” value amounted to 2 µg/mL. Further, in data set [2], the “MRSA MIC90” value turned out to be 4 µg/mL. Also, the untoward effects result in data set [3] is “no untoward effects”.
For `C[C@@H](O)[C@H]1C(=O)N2C(C(=O)[O-])=C3/C(=C/c4ccc([N+](=O)[O-])cc4)CCC[C@@H]3[C@H]12.[Na+]` [Example 6, Sodium (8S,9R,10S,12R)-1-aza-10-(1-Hydroxyethyl)-11-oxo-4-[(E)-(4-nitrophenyl)methylene]-tricyclo-[7,2,0,0^3.8]-undec-2-ene-2-carboxylate], in data set [1], the “MRSE MIC90” value is 2 µg/mL. In addition, in data set [2], the “MRSA MIC90” value came out at 2 µg/mL.
For the compound `C[C@@H](O)[C@H]1C(=O)N2C(C(=O)[O-])=C3/C(=C/c4cccc(-c5ccncc5)c4)CCC[C@@H]3[C@H]12.[Na+]` [Example 8, Sodium (8S,9R,10S,12R)-1-aza-10-(1-Hydroxyethyl)-11-oxo-4-[(E)-(3-(4′-pyridyl)phenyl)methylene]-tricyclo-[7,2,0,0^3.8]-undec-2-ene-2-carboxylate], the “MRSE MIC90” value in data set [1] is 2 µg/mL. Moreover, the “MRSA MIC90” value in data set [2] came to 2 µg/mL.
With `C[C@@H](O)[C@H]1C(=O)N2C(C(=O)[O-])=C3/C(=C/c4cc5ccccc5s4)CCC[C@@H]3[C@H]12.[Na+]` [Example 16, Sodium (8S,9R,10S,12R)-1-aza-10-(1-Hydroxyethyl)-11-oxo-4-[(E)-(benzothiophen-2-yl)methylene]-tricyclo-[7,2,0,0^3.8]-undec-2-ene-2-carboxylate], in data set [1], the “MRSE MIC90” value amounted to 1 µg/mL. Besides, the “MRSA MIC90” value in data set [2] amounted to 2 µg/mL.
The like results for `Cc1cc(/C=C2\CCC[C@H]3C2=C(C(=O)[O-])N2C(=O)[C@H]([C@@H](C)O)[C@@H]32)ccn1.[Na+]` [Example 10, Sodium (8S,9R,10S,12R)-1-aza-10-(1-Hydroxyethyl)-11-oxo-4-[(E)-(2-methylpyridin-4-yl)methylene]-tricyclo-[7,2,0,0^3.8]-undec-2-ene-2-carboxylate] were, in that order, 4 µg/mL and 8 µg/mL.
